The target in one assay is T1, FabD (Escherichia coli, UniProt P0AAI9).
T1 sequence (P0AAI9 2-309): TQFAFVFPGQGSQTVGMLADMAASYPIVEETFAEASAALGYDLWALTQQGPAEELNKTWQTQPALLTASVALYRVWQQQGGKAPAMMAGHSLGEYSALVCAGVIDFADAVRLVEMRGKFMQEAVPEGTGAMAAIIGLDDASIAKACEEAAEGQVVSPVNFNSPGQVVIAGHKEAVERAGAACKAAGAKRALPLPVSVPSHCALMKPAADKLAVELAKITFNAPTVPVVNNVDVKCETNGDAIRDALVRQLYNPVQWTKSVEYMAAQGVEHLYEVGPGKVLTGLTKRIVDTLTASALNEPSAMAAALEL
Briefly: carrier protein acylation under triketide pyrone production conditions. It is filed as biochemical. As to conditions: acceptor: PKS carrier protein domains.

Assay [1] has as its target T2, Plt module-1 (P1 PKS module-1) (Pseudomonas fluorescens, UniProt O51827).
T2 construct: gene pltB; module-1 only (KS-AT-CP) of the pyoluteorin PKS, wild-type AT; DEBS interdomain linkers used in the bimodular system; recombinant, purified; borders only in supplement
T2 sequence (O51827 1-1030 limits assumed): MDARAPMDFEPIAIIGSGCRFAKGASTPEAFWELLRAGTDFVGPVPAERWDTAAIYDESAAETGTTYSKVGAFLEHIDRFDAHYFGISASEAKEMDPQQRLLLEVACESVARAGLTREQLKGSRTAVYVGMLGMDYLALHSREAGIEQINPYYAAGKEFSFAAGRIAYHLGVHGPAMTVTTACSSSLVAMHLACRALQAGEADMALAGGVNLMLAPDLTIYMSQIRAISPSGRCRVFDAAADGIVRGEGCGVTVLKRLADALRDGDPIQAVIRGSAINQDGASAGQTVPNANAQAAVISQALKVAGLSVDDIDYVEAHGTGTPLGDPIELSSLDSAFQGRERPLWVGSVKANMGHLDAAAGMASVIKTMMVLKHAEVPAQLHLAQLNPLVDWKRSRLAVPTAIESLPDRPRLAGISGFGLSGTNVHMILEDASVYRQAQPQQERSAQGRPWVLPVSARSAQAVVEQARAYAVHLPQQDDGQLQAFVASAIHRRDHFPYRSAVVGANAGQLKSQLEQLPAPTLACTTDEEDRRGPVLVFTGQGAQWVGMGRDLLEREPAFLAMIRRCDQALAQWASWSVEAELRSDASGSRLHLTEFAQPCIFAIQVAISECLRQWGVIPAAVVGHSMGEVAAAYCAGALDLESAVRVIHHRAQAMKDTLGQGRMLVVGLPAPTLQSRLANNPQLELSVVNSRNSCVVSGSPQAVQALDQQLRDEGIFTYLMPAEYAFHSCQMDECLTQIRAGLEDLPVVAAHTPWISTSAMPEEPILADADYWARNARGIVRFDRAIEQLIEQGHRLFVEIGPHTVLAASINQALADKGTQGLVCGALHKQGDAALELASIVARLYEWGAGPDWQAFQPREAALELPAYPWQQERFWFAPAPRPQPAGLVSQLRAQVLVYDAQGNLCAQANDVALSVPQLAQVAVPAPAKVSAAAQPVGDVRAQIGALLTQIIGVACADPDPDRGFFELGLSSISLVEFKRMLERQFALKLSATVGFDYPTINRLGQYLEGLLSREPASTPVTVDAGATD
Briefly: diketide formation, extender unit competition assay. It is filed as biochemical. As to conditions: 4,5-dichloropyrrolyl-SNAC as ketide substrate; equimolar Mal-CoA and MeMal-CoA made with MatB; product diketide 6.

Consider 3 molecules from article PMC11411704, “Gatekeeping Activity of Collinear Ketosynthase Domains Limits Product Diversity for Engineered Type I Polyketide Synthases” (Biochemistry, 2024).

`C#CCC(C(=O)O)C(=O)SCCNC(=O)CCNC(=O)[C@H](O)C(C)(C)COP(=O)(O)OP(=O)(O)OC[C@H]1O[C@@H](n2cnc3c(N)ncnc32)[C@H](O)[C@@H]1OP(=O)(O)O` (stereo partly drawn) [PgMal-CoA]: the “carrier protein acylation under triketide pyrone production conditions” value at FabD is “FabD was also proficient in incorporating EtMal and PgMal extender units”.
In the case of `CCC(C(=O)O)C(=O)SCCNC(=O)CCNC(=O)[C@H](O)C(C)(C)COP(=O)(O)OP(=O)(O)OC[C@H]1O[C@@H](n2cnc3c(N)ncnc32)[C@H](O)[C@@H]1OP(=O)(O)O` (stereo partly drawn) [EtMal-CoA], the “carrier protein acylation under triketide pyrone production conditions” value on FabD is “FabD was also proficient in incorporating EtMal and PgMal extender units”.
`CC(C(=O)O)C(=O)SCCNC(=O)CCNC(=O)[C@H](O)C(C)(C)COP(=O)(O)OP(=O)(O)OC[C@H]1O[C@@H](n2cnc3c(N)ncnc32)[C@H](O)[C@@H]1OP(=O)(O)O` (stereo partly drawn) [MeMal-CoA]: the “diketide formation, extender unit competition assay” value in assay [1] is recorded as “the Plt module-1 KS could efficiently use the MeMal extender unit for diketide production”.
